Experimental data as given in patent US6699676B1, “Uses of ouabain and ouabain-like molecules in apoptosis related pathologies” (Corporation du Centre de Recherche du Centre, Hospitalier …, priority 1999, dated 2004).

Assays:
Jurkat cells = assay: Intracellular Na+ and K+ content in Jurkat cells; type: cell-based, human; settings: for Intracellular cations K^+i / Intracellular cations Na^+i: ouabain-treated Jurkat cells, 1 mM, 6 hours
Description: FIG. 1. Kinetics of modulation of intracellular Na^+ (1, 2) and K^+ (3, 4) content by ouabain in VSMC-E1A (1, 3) and Jurkat cells (2, 4). Cells were preincubated for 24 hours in the presence of 10% calf serum in control medium consisting of 91 mM NaCl, 5 mM KCl, 0.9 mM NaH2PO4, 44 mM NaHCO3, 1.8 mM CaCl2, 0.8 mM MgCl2, 33 mM HEPES and 5 mM D-glucose (pH 7.4) with 2 μCi/ml of ^22Na or 0.5 μCi/ml ^86Rb, and 1 mM ouabain was added at the time interval indicated by the arrow. At specific time-points, intracellular Na^+ and K content + was measured as described in Experimental Procedures. Mean values±S.E. obtained in experiments performed in quadruplicate (VSMC-E1A) or triplicate (Jurkat cells) are given.
To estimate chromatin cleavage, cells were incubated for 2 hours in the presence of 10% calf serum in the control solution (DMEM, [Na^+]=137 mM; [K^+]=5 mM—line 1) or under equimolar substitution of NaCl with KCl ([Na^+]=14 mM; [K^+]=128 mM—line 2) with or without 1 mM ouabain and then for an additional 7 hours at the same media with or without 100 ng/ml Fas ligand (Fas-L). Intracellular Na^+ and K^+ content was measured as steady-state distribution of isotopes after 24 hours preincubation of cells in control Na^+-enriched solution containing 0.5 μCi/ml ^86Rb or 2 μCi/ml ^22Na, and an additional 6 hours incubation in Na^+—(line 1) or K^+—(line 2) enriched medium containing 10% calf serum, isotopes with the same specific activity with or without 1 mM ouabain. For more details see Experimental Procedures. Mean values±S.E. obtained in experiments performed in triplicate are given. ★, #p<0.01 and 0.001 compared to ouabain-untreated cells.
Intracellular Na^+ and K^+ content. The intracellular content of exchangeable Na^+ and K^+ was measured as steady-state distribution of extra- and intracellular ^22Na and ^86Rb, as described previously in detail (22). Briefly, to establish the steady-state distribution of isotopes, VSMC growing in 12× (^22Na) or 24× (^86Rb) well plates or ˜10^6 Jurkat cells in suspension were preincubated for 24 hours in DMEM containing 10% calf serum and 0.5 μCi/ml ^86RbCl or 2 μCi/ml ^22NaCl and then treated in media with compositions shown in FIG. 1 and Tables 3 and 4 and with the same specific radioactivity. At the end of incubation, the VSMC were transferred on ice, washed 4 times with 2 ml of ice-cold medium W, containing 100 mM MgCl2 and 10 mM HEPES-tris buffer (pH 7.4), and lysed with SDS/EDTA mixture. One ml of Jurkat cell suspension was applied on a Whatman type C filter with the cells being washed with 3×5 ml aliquots of ice-cold medium W under negative pressure of 20-30 mm Hg. Radioactivity of the incubation medium and cell lysate was measured with a liquid scintillation analyzer and intracellular cation content was determined as A/am, where A was the radioactivity of the samples (cpm), a was the specific radioactivity of Na^+ and K^+(^86Rb) in the medium (cpm/nmol), and m was the protein content determined by Lowry methods.

VSMC = assay: ATP content in VSMC; settings: 8 hours incubation with ouabain, data not shown

## C[C@@H]1O[C@@H](O[C@H]2C[C@@H](O)[C@]3(CO)[C@H]4[C@H](O)C[C@]5(C)[C@@H](C6=CC(=O)OC6)CC[C@]5(O)[C@@H]4CC[C@]3(O)C2)[C@H](O)[C@H](O)[C@H]1O [Ouabain, 1β,3β,5,11α,14,19-hexahydroxycard 20 [22]-enolide 3-[6-deoxy-α-L-mannopyrano-sidel]]
Jurkat cells; ouabain treated Jurkat lymphocytes, 1 mM (FIG. 1, curve 2)
  increase of the content of intracellular Na^+: 10 fold
Jurkat cells; medium [Na+]o=14, [K+]o=128 mM
  Intracellular cations K^+i: 498 nmol/mg protein
  Intracellular cations Na^+i: 204 nmol/mg protein
Jurkat cells; medium [Na+]o=137, [K+]o=5 mM
  Intracellular cations K^+i: 107 nmol/mg protein
  Intracellular cations Na^+i: 1137 nmol/mg protein
VSMC
  ATP content: did not observe any significant effect
